Data: patent US11168052B2, “Carbamate derivative compounds, processes for preparing them and their uses” (BIO-PHARM SOLUTIONS CO., LTD., priority 2016, dated 2021)

Experiments:
[1] = test system: PTZ (Pentylenetetrazol)-induced clonic seizure in mice; assay: Anti-epilepsy activity, scPTZ test in mouse; format: in vivo, ICR mice; conditions: ip
Excerpt: In this experiment, each test compound sample was formulated as described in Biological Experimental Example 1, and administered intraperitoneally to the test animals (mice; ICR or Rat; SD); Experimental animals, male ICR mice and male SD rats, were purchased from OrientBio or Nara biotech, Korea, and housed 4-5 mice per a cage for 4-5 days. The range of mice body weight was used between 19 and 26 grams and range of rats body weight was used between 100 and 130 grams. After Peak time (0.5, 1, 2 and 4 hr) from the administration, PTZ (Pentylenetetrazol) was administered subcutaneously in the concentration capable of inducing 97% intermittent convulsions (mice: 100-110 mg/kg?bw, 10 μl/g, or rats: 90-110 mg/kg?bw, 2 μl/g). If clonic seizure was not observed for at least 30 minutes in the PTZ administered animal, it can be considered that the test compound has anti-epilepsy activity. The median effective dose (ED50) is determined using 6 animals per a concentration (total three different concentrations), and calculated by Litchfield and Wicoxon log-probit method which is a dose-response relationship.

[2] = test system: Lithium-pilocarpine induced seizure in rats; assay: Lithium-pilocarpine induced epilepsy test (LI-PILO), prevention test; format: in vivo, Sprague-Dawley rats
Experimental: (§1) Male Sprague-Dawley rats (purchased from Orient Bio Inc. Korea) of body weight 175 grams were used for these studies and 3 rats per cage were housed for 4-5 days. On the day prior to SE, rats received 127 mg/kg lithium chloride (Sigma, St. Louis, Mo., U.S.A.) intraperitoneally (i.p.). Approximately 18-20 h following this treatment, rats were given an i.p. injection of the concentration capable of inducing 97% intermittent convulsions pilocarpine(Sigma, 30-43 mg/kg). An i.p. injection of 2 mg/kg methyl-scopolamine (Sigma) was administered 30 min prior to pilocarpine to block the effects of the muscarinic agonist on peripheral cholinergic receptors. Test drugs were dissolved in 20% tween80 (Sigma).
(§2) The drugs were administered intraperitoneally (i.p.) in a volume of 2 μl/g body weight. Pharmacological effects of all of the test materials were evaluated to compare test groups (n=6) with a control group (n=6). Control group was administered vehicle only. The efficacy was measured 0.5, 1, 2, or 4 hours after the administration of the test material. The time point that the most animals were protected was defined as peak time and the ED50 was determined at peak time. The animals were then transferred to observation cages and observed continuously for 90 min Seizure was elicited in approximately 95% of the control group. Protection was defined as complete absence of seizure grade 3-5 (Racine scale; Racine, 1972) over the 90-min observation period. The effective dose of the compound necessary to protect 50% of the animals against seizures compared to controls (i.e., ED50) was determined by a curve fitting program (Excel 2007, Microsoft).

[3] = test system: Lithium-pilocarpine induced seizure in rats; assay: Lithium pilocarpine model (inter); format: in vivo, Sprague-Dawley rats; conditions: Rattus norvegicus
Experimental: as §1
as §2, with “Protection was defined as complete absence of seizure grade 3-5 (Racine scale; Racine, 1972) over the 90-min observation period. The effective dose of the compound necessary to protect 50% of the animals against seizures compared to controls (i.e., ED50) was determined by a curve fitting program (Excel 2007, Microsoft).” left out

[4] = test system: corneally kindled rats; assay: Corneal kindling (CK) rat model; format: in vivo, Sprague-Dawley rats; conditions: po
Excerpt: Male Sprague-Dawley rats (purchased from Orient Bio Inc. Korea) of body weight 85-100 g were used for these studies. The MES test using the electroshock seizure apparatus designed by Rodent Shocker Type221 (Hugo Sachs Elektronik, Germany). The kindled rat models were electrically stimulated (8 mA, 60 Hz, 2 s, corneal electrodes) twice daily for 21 days until stage 5 seizure scored by Racine's scale (Racine, 1972) were evoked. The kindled rats were fasted and adapted to test condition, for at least 1 hour before the administration of test material. The drugs were administered orally (p.o.) in a volume of 4 μl/g body weight. The corneally kindled rat model test is a model for generalized […] seizures or bipolar disorder and identifies the compound which prevents seizure or bipolar disorder spread. The shock level was set at 8 mA, 60 Hz and the duration was set at 2 s. A drop of 0.9% saline was placed in each eye, the electrodes were placed over the eyes, and the shock was administered immediately. Pharmacological effects of the test materials were evaluated to compare the test groups (n=6) with a control group (n=6). Control group was administrated vehicle, only. The peak time was determined by administration test material's random dose for 0.5, 1, 2, 4 hour. The time that the most protect was defined peak time and ED50 was determined by other dose administration at peak time. […]

SMILES | ED50 [1] [mg/kg] | ED50 ([2]; Rattus norvegicus, ip, prevention, read-out: Lithium pilocarpine model (pre) ED50) [mg/kg] | ED50 [3] [mg/kg] | ED50 [4] [mg/kg] | Lithium pilocarpine model (pre) efficacy % ([2]; i.p., dose 50 mg/kg) [%]
NC(=O)O[C@@H]1CCc2cccc(Cl)c2[C@@H]1O [Example 1, (1S, 2R)-8-chloro-1-hydroxy-1,2,3,4-tetrahydronaphthalen-2-yl carbamate] | 12.5 | 22 | 24.5 | 7.5 | 
NC(=O)O[C@@H]1c2c(Cl)cccc2CC[C@@H]1O [Example 19, (1R, 2S)-8-chloro-2-hydroxy-1,2,3,4-tetrahydronaphthalen-1-yl carbamate] |  |  |  |  | 50
